Our source for the GI50 values is patent US20240400521A1, “QUINAZOLINE COMPOUND, COMPOSITION, AND APPLICATION THEREOF” (BEIJING SCITECH-MQ PHARMACEUTICALS LIMITED, priority 2021, published 2024).

Some results are limits rather than exact numbers.

This assay concerns the target Ba/F3-EGFR-VIII cells (Homo sapiens, UniProt P00533, DELINS30-297G, cells depend on it). As to the kind of experiment: Inhibition of cell proliferation, CTG method, Ba/F3-EGFR-VIII. Conditions: 72 hours, read-out: Ba/F3 EGFRvIII IC50. The format is cell-based. The text has this:
The present application examined the in vitro anti-proliferative activity of the compounds of the present disclosure against in vitro cultured HCC-827, Ba/F3-EGFR-VIII and Ba/F3 EGFR D770_N771insSVD cell lines by CTG method.
Reagents and consumables: RPMI1640 (ThermoFisher, Cat. No. C11875500BT); DMEM (ThermoFisher, C11995500BT); fetal bovine serum (Hyclone, Cat. No. SV30087.03); 0.25% trypsin-EDTA (ThermoFisher, Cat. No. 25200072); penicillin-streptomycin (Hyclone, Cat. No. SV30010); DMSO (Life Science, Cat. No. 0231-500ML); CTG assay kit (Promega, Cat. No. G9243); 96-well plate (Corning, Cat. No. 3599); multifunctional plate reader (Perkin Elmer, Cat. No. Envision)
Cell lines: HCC-827 (from ATCC), Ba/F3-EGFR-VIII and Ba/F3 EGFR D770_N771insSVD (all from KYinno Biotechnology (Beijing) Co., Ltd.); all of the above cells were cultured with RPMI1640 medium containing 10% fetal bovine serum, 100 U/mL penicillin, and 100 μg/mL streptomycin in the culture process, and HCC-827 was cultured with DMEM medium containing 10% fetal bovine serum, 100 U/mL penicillin, and 100 μg/mL streptomycin.
• 1. The assay compound was dissolved with DMSO to form a stock solution and a gradient dilution was performed, followed by dilution with the corresponding medium to obtain a solution with 5-fold working concentration. • 2. Cells in logarithmic growth phase were adjusted to specific cell densities by dilution with culture medium, and 80 μL of cell suspension was added to a 96-well plate, such that plating densities of cells of HCC-827, Ba/F3-EGFR-VIII and Ba/F3 EGFR D770_N771insSVD were all 3000 cells/well. The cells of Ba/F3-EGFR-VIII and Ba/F3 EGFR D770_N771insSVD were used directly in the next step (treatment with compound), whereas the HCC-827 needed to be cultured overnight in a 37° C., 5% carbon dioxide gas incubator to adhere to the wall, and then treated with compounds. • 3. 20 μL of compound solution was added to each well of the 96-well plate that had been inoculated with cells. The highest concentration of the assayed compound was 10 μM, 4-fold serial dilution, a total of 9 concentrations, and duplicate wells. A control group without compound was also set up. • 4. The cells were cultured for another 72 hours, and then cell viability was detected by CTG assay kit. Signal values were read with a multifunctional plate reader (Perkin Elmer). GraphPad Prism software was used to create a dose-response curve and IC50 was calculated.

Ba/F3-EGFR-VIII cells, sequence (P00533 with tags, fused parts or gaps DELINS30-297G): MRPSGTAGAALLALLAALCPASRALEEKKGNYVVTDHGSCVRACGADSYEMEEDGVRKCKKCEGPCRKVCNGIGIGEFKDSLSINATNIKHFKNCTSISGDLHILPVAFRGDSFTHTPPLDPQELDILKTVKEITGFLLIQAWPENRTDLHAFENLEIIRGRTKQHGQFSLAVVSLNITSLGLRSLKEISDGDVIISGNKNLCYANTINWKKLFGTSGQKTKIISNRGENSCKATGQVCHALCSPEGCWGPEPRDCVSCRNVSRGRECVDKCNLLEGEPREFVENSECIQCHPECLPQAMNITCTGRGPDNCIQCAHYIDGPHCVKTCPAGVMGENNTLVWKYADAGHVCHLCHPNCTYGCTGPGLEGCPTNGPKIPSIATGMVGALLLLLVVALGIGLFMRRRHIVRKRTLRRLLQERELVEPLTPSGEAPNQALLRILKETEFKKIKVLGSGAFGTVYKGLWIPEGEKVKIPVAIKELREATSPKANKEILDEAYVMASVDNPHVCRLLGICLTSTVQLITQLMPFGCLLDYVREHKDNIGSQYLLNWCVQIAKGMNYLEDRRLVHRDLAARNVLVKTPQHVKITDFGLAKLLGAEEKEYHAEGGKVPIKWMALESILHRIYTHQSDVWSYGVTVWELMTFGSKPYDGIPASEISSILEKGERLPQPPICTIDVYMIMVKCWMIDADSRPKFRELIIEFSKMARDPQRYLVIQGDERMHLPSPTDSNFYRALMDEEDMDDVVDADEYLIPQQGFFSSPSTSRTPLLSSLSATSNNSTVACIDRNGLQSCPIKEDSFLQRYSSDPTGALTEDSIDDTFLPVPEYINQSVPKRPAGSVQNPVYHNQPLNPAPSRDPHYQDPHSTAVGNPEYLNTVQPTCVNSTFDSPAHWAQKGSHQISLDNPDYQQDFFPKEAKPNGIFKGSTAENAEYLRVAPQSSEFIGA

In the case of `COc1c(NC(=O)/C=C/CN(C)C)ccc2ncnc(Nc3cccc(Cl)c3F)c12` [Example 1, (E)-N-(4-((3-chloro-2-fluorophenyl)amino)-5-methoxyquinazolin-6-yl)-4-(dimethylamino)but-2-enamide], the GI50 was at most 5 nM.
